Read-outs that look alike come from different tables or passages of the source.
Key:
[1] = Single dose crossover study in healthy volunteers, pharmacokinetics; conditions: both, human, plasma; for AUC(0-inf): AUC0-inf; for AUC(0-inf) / AUC(0-t) / Cmax: geometric mean; for AUC(0-t): AUC0-t; for Cmax: 15 subjects; for half-life: t1/2, geometric mean; for Tmax: median
Source text: A randomized, open-label 4-way crossover study in 16 healthy male and female subjects was held wherein said subjects were placed in a randomly assigned order and administered esketamine. Each subject was assigned to 1 of 4 treatment sequences according to a randomization code such that 4 subjects were assigned to each treatment sequence. There was a wash-out period of at least 7 days between dosing periods with doses consisting of either oral or intravenous esketamine hydrochloride. The study consisted of an eligibility screening period of 28 days, 4 study periods involving administration of a single dose of esketamine hydrochloride followed by safety assessments with blood sampling for PK purposes up to 72 hours after study drug administration, discharge at 72 hours after study drug administration and a follow-up visit 7-14 days after the last PK blood sample was taken on Day 4.

[2] = system: animal models of depression; conditions: cited from earlier work
[3] = system: human peripheral blood lymphocytes (HPBL)
Procedure: (§1) The clastogenic potential of (S)-norketamine was evaluated in the in vitro mammalian chromosome aberration test using human peripheral blood lymphocytes (HPBL) in both the absence and presence of an induced metabolic activation system (the 9000 g supernatant [S9] microsomal fraction of liver homogenate from rats exposed to phenobarbital/5,6-benzoflavone).
The study was conducted in 2 phases, with a preliminary toxicity test used to determine the appropriate concentrations for the definitive chromosomal aberration assay. Water was used as a negative (vehicle) control. In both phases, the cells were treated for 3 and 21 hours in the absence of S9 mix and for 3 hours in the presence of S9 mix. The mitotic index was assessed for all cultures to determine cytotoxicity. Ten concentrations, ranging from […], were evaluated in the preliminary toxicity test.

[4] = system: human peripheral blood lymphocytes (HPBL); remark: listed apart in the source
Procedure: as §1, with “esketamine” for “(S)-norketamine”, “Aroclor-1254).” for “phenobarbital/5,6-benzoflavone).”
The study was conducted in 2 phases, with a preliminary toxicity test used to determine the appropriate concentrations for the definitive chromosomal aberration assay. Water was used as a negative (vehicle) control. Toxicity (defined as >45% reduction in MI relative to the vehicle control) was evaluated at 9 concentrations, ranging from 0.0238 to 238 μg/ml, after exposure of HPBL to esketamine for 20 hours in the absence of S9 activation, or for 4 hours, either in the presence or absence of S9 activation, followed by a 16-hour recovery period.
The definitive chromosome aberration assay evaluated HPBL cells after exposure to esketamine for 20 hours in the absence of S9 activation, or for 4 hours, either in the presence of absence of S9 activation, followed by a 16-hour recovery. Positive controls for chromosomal aberrations in non-activated and S9-activated evaluations, respectively, consisted of mitomycin C (MMC, 0.6 and 0.3 μg/mL for the 4- and 20-hour exposures, respectively) and cyclophosphamide (CP, 2.5, 5, and 7.5 μg/mL). […] Initially, the doses selected for evaluation of chromosomal aberrations were 60, 120, and 238 μg/mL for the non-activated 4- and 20-hour treatment conditions; and 30, 60, and 200 μg/mL for the S9-activated 4-hour treatment condition.

[5] = Yanagihara et al (2003); cited from earlier work
[6] = system: chronic pain; conditions: oral; cited from earlier work
[7] = system: bipolar disorder; conditions: intravenous; cited from earlier work
[8] = system: Generalized Anxiety and Social Anxiety Disorder patients; conditions: treatment-refractory patients; cited from earlier work
[9] = system: Parkinson's disease sufferers; conditions: cited from earlier work
[10] = iv, 0.3 mg/kg, plasma analyte after single dose esketamine 0.3 mg/kg iv
[11] = po, 20 mg, plasma analyte after single dose esketamine 20 mg oral solution
[12] = po, 20 mg, plasma analyte after single dose esketamine 20 mg oral tablet
[13] = po, 100 mg, plasma analyte after single dose esketamine 100 mg oral tablet
[14] = S9-activated system, positive control

Compound | AUC(0-inf) [1, 10] | AUC(0-t) [1, 10] | Cmax [1, 10] | half-life [1, 10] | Tmax [1, 10] | AUC(0-inf) [1, 11] | AUC(0-inf) [1, 12] | AUC(0-t) [1, 11] | AUC(0-t) [1, 12] | Cmax [1, 11] | Cmax [1, 12] | half-life [1, 11] | half-life [1, 12] | Tmax [1, 11] | Tmax [1, 12] | AUC(0-inf) [1, 13] | AUC(0-t) [1, 13] | Cmax [1, 13] | half-life [1, 13] | Tmax [1, 13] | further results
N[C@]1(c2ccccc2Cl)CCC[C@H](O)C1=O [(2S,6S)-OH-Norketamine, (2S,6S)-2-Amino-2-(2-chlorophenyl)-6-hydroxycyclohexanone] | 390 ng·h/mL | 376 ng·h/mL | 24.8 ng/mL | 10.7 h | 3 h | 378 ng·h/mL | 401 ng·h/mL | 366 ng·h/mL | 390 ng·h/mL | 46.5 ng/mL | 45.8 ng/mL | 7.83 h | 7.77 h | 1 h | 1.5 h | 1960 ng·h/mL | 1950 ng·h/mL | 189 ng/mL | 8.92 h | 2 h | 
CN[C@@]1(c2ccccc2Cl)CCCCC1=O [(R)-ketamine, (2R)-2-(2-Chlorophenyl)-2-(methylamino) cyclohexanone] |  |  |  |  |  |  |  |  |  |  |  |  |  |  |  |  |  |  |  |  | antidepressant effects compared with esketamine [2]: greater potency and longer-lasting antidepressant effects than esketamine
N[C@]1(c2ccccc2Cl)CCCCC1=O [(S)-norketamine, (2S)-2-(2-Chlorophenyl)-2-(amino) cyclohexanone] | 441 ng·h/mL | 426 ng·h/mL | 42.2 ng/mL | 11.3 h | 1.25 h | 417 ng·h/mL | 429 ng·h/mL | 405 ng·h/mL | 418 ng·h/mL | 99.8 ng/mL | 89.7 ng/mL | 8.88 h | 8.75 h | 0.75 h | 1 h | 2280 ng·h/mL | 2270 ng·h/mL | 352 ng/mL | 9.27 h | 1 h | Toxicity (mitotic index), preliminary toxicity test [3]: not observed at any dose; clastogenicity, conclusion [3]: non-clastogenic; proportion of metaphase figures containing chromosomal aberrations vs vehicle control [3]: no statistically significant increases; proportion of polyploid or endoreduplicated metaphase cells vs vehicle control ([3]; any treatment condition): No statistically significant increases
O=P1(N(CCCl)CCCl)NCCCO1 (centres unmarked) [CP, cyclophosphamide] |  |  |  |  |  |  |  |  |  |  |  |  |  |  |  |  |  |  |  |  | proportion of aberrant cells ([3]; positive control compounds): statistically significant increases; cells with structural aberrations [4, 14]: 10.7%; mean MI value [4, 14]: 6.2%
CO[C@@]12[C@H](COC(N)=O)C3=C(C(=O)C(C)=C(N)C3=O)N1C[C@@H]1N[C@@H]12 [MMC, mitomycin C] |  |  |  |  |  |  |  |  |  |  |  |  |  |  |  |  |  |  |  |  | proportion of aberrant cells [3]: statistically significant increases; cells with structural chromosomal aberrations [4]: 13.3%; mean MI value ([4]; non-activated systems, positive control): 9%
CNC1(c2ccccc2Cl)CCCCC1=O (stereo not drawn) [ketamine, dl 2-(2-chlorophenyl)-2(methylamino) cyclohexanone] |  |  |  |  |  |  |  |  |  |  |  |  |  |  |  |  |  |  |  |  | nasal bioavailability [5]: 45%; chronic pain [6]: could reduce chronic pain; effect in bipolar disorder [7]: robust and rapid effect; anxiety ratings [8]: improvement in anxiety ratings within an hour of ketamine dosing which persisted for up to a week; levodopa induced dyskinesia [9]: could reduce levodopa induced dyskinesia

From US20210196654A1, “METHOD OF TREATING CONDITIONS” (Clexio Biosciences Ltd., priority 2019, published 2021)
